These compounds were tested against T1, Adenosine receptor A3 (Homo sapiens, UniProt P0DMS8).
T1 sequence (P0DMS8 whole entry): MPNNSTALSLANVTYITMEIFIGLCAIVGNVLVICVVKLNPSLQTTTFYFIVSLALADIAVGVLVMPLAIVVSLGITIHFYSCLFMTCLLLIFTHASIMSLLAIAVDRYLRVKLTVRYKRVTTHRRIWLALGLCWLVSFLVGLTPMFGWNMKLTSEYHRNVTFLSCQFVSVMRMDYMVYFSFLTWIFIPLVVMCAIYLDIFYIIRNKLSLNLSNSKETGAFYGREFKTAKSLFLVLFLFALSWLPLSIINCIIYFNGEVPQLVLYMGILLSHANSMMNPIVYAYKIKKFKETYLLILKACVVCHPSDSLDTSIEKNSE
Description: Binding affinity for human adenosine A3 receptor

Compared with `CC(C)=CCn1cc2c(nc(N)n3nc(-c4ccco4)nc23)n1`, `CCCCCCCCn1cc2c(nc(N)n3nc(-c4ccco4)nc23)n1` is 2.5-fold higher in Ki: 811 nM for the first, 2050 nM for the second.

Going from `CCCCCCCCn1cc2c(nc(NC(=O)Nc3ccc(C)cc3)n3nc(-c4ccco4)nc23)n1` to `CCCCCCCCn1cc2c(nc(NC(=O)Nc3ccc(CC(=O)OCC)cc3)n3nc(-c4ccco4)nc23)n1`, the Ki rises from 4.48 nM to 9.97 nM (2.2-fold). The first binds more tightly here.

First: CC(C)(C)NC(=O)Nc1nc2nn(CCc3ccccc3)cc2c2nc(-c3ccco3)nn12
Second: CC(C)(C)NC(=O)Nc1nc2nn(CCCc3ccccc3)cc2c2nc(-c3ccco3)nn12
The Ki of the first is 13-fold lower: 4.9 nM for the first, 65 nM for the second.

Compared with `CC(C)CCn1cc2c(nc(NC(=O)NC(C)(C)C)n3nc(-c4ccco4)nc23)n1`, `CCCn1cc2c(nc(NC(=O)NC(C)(C)C)n3nc(-c4ccco4)nc23)n1` is 2.6-fold lower in Ki: 39 nM for the first, 15 nM for the second.

Compared with `Cc1ccc(NC(=O)Nc2nc3nn(CCC(C)C)cc3c3nc(-c4ccco4)nn23)cc1`, `CCOC(=O)Cc1ccc(NC(=O)Nc2nc3nn(CCC(C)C)cc3c3nc(-c4ccco4)nn23)cc1` is 1.6-fold higher in Ki: 7.41 nM for the first, 11.9 nM for the second.

Going from `CCOC(=O)Cc1ccc(NC(=O)Nc2nc3nn(C)cc3c3nc(-c4ccco4)nn23)cc1` to `CCOC(=O)Cc1ccc(NC(=O)Nc2nc3nn(CC4CCCCC4)cc3c3nc(-c4ccco4)nn23)cc1`, the Ki rises from 0.82 nM to 6.95 nM (8.5-fold).

First: O=C(Nc1nc2nn(CC3CCCCC3)cc2c2nc(-c3ccco3)nn12)NC1CCCCC1
Second: CC(C)CCn1cc2c(nc(NC(=O)NC3CCCCC3)n3nc(-c4ccco4)nc23)n1
The Ki of the first is 3.1-fold lower: 6.7 nM for the first, 20.5 nM for the second.

First: NCC(=O)Nc1nc2nn(CCc3ccccc3)cc2c2nc(-c3ccco3)nn12
Second: NCCC(=O)Nc1nc2nn(CCc3ccccc3)cc2c2nc(-c3ccco3)nn12
The Ki of the first is 2-fold higher: 163 nM for the first, 80 nM for the second.

`CCCCCCCCn1cc2c(nc(NC(=O)NCCCCC)n3nc(-c4ccco4)nc23)n1` and `CCCCCNC(=O)Nc1nc2nn(CCC(C)C)cc2c2nc(-c3ccco3)nn12` are within 1.5-fold of each other in Ki: 7.83 nM for the first, 8.09 nM for the second.

First: CC(C)CCn1cc2c(nc(NC(=O)CCCN)n3nc(-c4ccco4)nc23)n1
Second: CC(C)CCn1cc2c(nc(NC(=O)CCCNC(=O)OC(C)(C)C)n3nc(-c4ccco4)nc23)n1
The Ki of the first is 28-fold lower: 90 nM for the first, 2490 nM for the second.

Going from `CCCCCNC(=O)Nc1nc2nn(CC3CCCCC3)cc2c2nc(-c3ccco3)nn12` to `CCCCCCCCn1cc2c(nc(NC(=O)NC3CCCCC3)n3nc(-c4ccco4)nc23)n1`, the Ki rises from 3.98 nM to 16.3 nM (4.1-fold).

Going from `Nc1nc2nn(CC3CCCCC3)cc2c2nc(-c3ccco3)nn12` to `Cc1ccc(NC(=O)Nc2nc3nn(CC4CCCCC4)cc3c3nc(-c4ccco4)nn23)cc1`, the Ki falls from 1720 nM to 5.94 nM (290-fold). The second binds more tightly here.

Compared with `CC(C)CCn1cc2c(nc(NC(=O)NC(C)C)n3nc(-c4ccco4)nc23)n1`, `CCCn1cc2c(nc(NC(=O)NC(C)C)n3nc(-c4ccco4)nc23)n1` is 3.1-fold lower in Ki: 65 nM for the first, 21 nM for the second.

First: CC(C)(C)OC(=O)NCCCC(=O)Nc1nc2nn(CCc3ccccc3)cc2c2nc(-c3ccco3)nn12
Second: NCCCC(=O)Nc1nc2nn(CCc3ccccc3)cc2c2nc(-c3ccco3)nn12
The Ki of the first is 23-fold higher: 1480 nM for the first, 65 nM for the second. The second binds more tightly here.

Compared with `CC(C)NC(=O)Nc1nc2nn(CCc3ccccc3)cc2c2nc(-c3ccco3)nn12`, `CC(C)NC(=O)Nc1nc2nn(CCCc3ccccc3)cc2c2nc(-c3ccco3)nn12` is 6.1-fold higher in Ki: 9 nM for the first, 55 nM for the second.

`CCCCCNC(=O)Nc1nc2nn(C)cc2c2nc(-c3ccco3)nn12` was tested, and the Ki was 1.95 nM.

From ChEMBL document CHEMBL1145284, “Combined target-based and ligand-based drug design approach as a tool to define a novel 3D-pharmacophore model of human A3 adenosine receptor antagonists: pyrazolo[4,3-e]1,2,4-triazolo[1,5-c]pyrimidine derivatives as a key study” (J Med Chem, 2005)
